Test results: patent publication US10350252B2, “Cocoa polyphenols and their use in the treatment or prevention of eosinophilic esophagitis” (NESTEC S.A., priority 2013, dated 2019)

Tested on: eosinophils in the esophagus
Assay: Mouse model of eosinophilic esophagitis (epicutaneous Aspergillus fumigatus sensitization, intranasal challenge): eosinophil count in H&E stained esophagus
Format: in vivo, Balb/c mice
Details: compared to the positive control (3X ASP sensitized, 1x ASP challenged, untreated); test substance in the food; harvest on day 32
Method: It is the object of the invention to provide new and alternative solutions to the problem of preventing or treating eosinophilic esophagitis. […] The evaluation of ingredients which are useful in the treatment or prevention of eosinophilic esophagitis is performed using an established mouse model for eosinophilic esophagitis (Akei et al., “Epicutaneous antigen exposure primes for experimental eosinophilic esophagitis in mice”, Gastroenterology, 2005 September; 129(3):985-94). This model uses various parameters including the number of eosinophils in the esophagus as indicators for the effect on eosinophilic esophagitis. Accordingly, is ideally suited for the testing of compounds that are candidates for the treatment or prevention of eosinophilic esophagitis. FIG. 2. Eosinophil number in the esophagus. The esophagea were harvested and tissue histology was performed. Eosinophils were identified and counted on Hematoxylin & Eosin (H&E) stained slides per high powered field (hpf). The maximal number of eosinophils found in one hpf field in the whole esophagus is shown. The maximal number of eosinophils present in the esophagal epithelium is represented. […] Esophagi were harvest and stained with hematoxylin eosin and eosinophils were counted (maximum/high power field, see FIG. 2).

## Oc1cc(O)c2c(c1)O[C@H](c1ccc(O)c(O)c1)[C@H](O)C2 [epicatechin]
  reduction of eosinophils in the esophagus (maximum number per high power field): no effect
